According to patent US9708247B2, “Modulators of the eIF2alpha pathway” (The Regents of the University of California, priority 2013, dated 2017):
“Also recorded” adds a separate entry of the source. Like-named read-outs stand apart in the source and are kept apart here.

Legend:
[1] = system: ATF4 luciferase reporter; experiment: ATF4 luciferase reporter assay (Cell-luc) in HEK293T cells; assay type: cell-based, human
Method in brief: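 HEK293T cells stably carrying a human ATF4 5′-UTR (uORFs 1 and 2)–firefly luciferase reporter, treated with compound; luminescence measured at end point. Inhibition normalized to no-ER-stress DMSO control (100%).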

[2] = system: contextual fear memory; experiment: Contextual fear conditioning; assay type: in vivo, mouse; details: vs vehicle
Experimental: Eight to ten-week-old male C57BL/6J mice were used for behavioral experiments. Food and water were provided ad libitum, and mice were kept on a 12:12 h light/dark cycle (lights on at 08:00 h). All procedures complied with Canadian Council on Animal Care guidelines
Mice were handled for 3 days and thereafter injected daily intraperitoneally with ISRIB (0.25 mg/kg in saline, 1% DMSO) for 4 consecutive days. One hour after the last injection the mice were trained with the protocol, which consisted of a 2-min period of context exploration, followed by a single foot shock of 0.35 mA for 1 s. The mice were returned to their home cage 1 min after the shock. One and 24 h after training, the mice were tested for contextual fear memory by placing the animals in the conditioning context for a 4-min period. The incidence of freezing was scored in 5-s intervals as either “freezing” or “not freezing”. Percent of freezing indicates the number of intervals in which freezing was observed divided by total number of 5-s intervals. Statistical analyses were done by Student's t tests and one-way ANOVA followed by between-group comparisons using Tukey's posthoc test.

[3] = system: auditory fear memory; experiment: Cannulation and auditory fear conditioning; assay type: in vivo, rat; details: rats, infused into amygdala, vs vehicle
Experimental: Male Sprague Dawley rats (275-350 g) were used for cannulation as described in Migues et al, 2010 (46). ISRIB (0.05 mg/ml, […]) was infused bilaterally into the amygdala immediately after auditory fear conditioning training. The infusion was performed with a microinjector (28 gauge) connected to a Hamilton syringe with plastic tubing at a rate of 0.4 μl/min. To allow for the solution containing ISRIB to diffuse from the tip of the cannula into the tissue, the microinjector stayed in the cannula for one additional minute. Training protocol for auditory fear conditioning consisted of a 2-min period of context A exploration, followed by one pairing of a tone (2800 Hz, 85 dB, 30 s) with a co-terminating foot shock (0.75 mA, 1 s). Rats were returned to their home cage 1 min after the shock. Test for auditory fear memory consisted of a 2 min acclimatizing period to the context B (pre-CS), followed by tone presentation (CS) (2800 Hz, 85 dB, 30 s). Freezing time was measured and percent of freezing was calculated. At the end of the experiment, cannula placement was checked by examining 50 μm brain sections stained with formal-thionin under a light microscope.

[4] = system: RPMI 8226 cells; experiment: Multiple myeloma xenograft model (RPMI 8226, BALB/c scid mice); assay type: in vivo, mouse; details: 5 mg/kg orally, daily
[5] = system: global translation; experiment: Metabolic labeling (35S-methionine incorporation) in HEK293T cells; assay type: cell-based, human; details: 100 nM thapsigargin plus 200 nM ISRIB
Experimental: HEK293T cells were seeded on 12 well plates, allowed to recover overnight and treated for the indicated times with the indicated compounds. The cells were subsequently switched to media lacking methionine and cysteine supplemented with the indicated compounds and 50 μCi of ^35S-methionine (Perkin Elmer) for 20 min. Cells were lysed by addition of SDS-PAGE loading buffer. Lysates were sonicated and equal amounts were loaded on SDS-PAGE gels (BioRad). The gel was dried and radioactive methionine incorporation was detected by exposure to a phosphor-screen and visualized with a Typhoon 9400 Variable Mode Imager (GE Healthcare).

Q: With `O=C(COc1ccc(Cl)cc1)NC1CCC(NC(=O)COc2ccc(Cl)cc2)CC1` (stereo not drawn) [ISRIB] as the molecule, how does the IC50 ([1]; cultured HEK293T cells, 2 μg/ml tunicamycin, 7 h, synthesized isomers, read-out: IC50, inhibition of the ATF4-luciferase reporter) read?
A: 5 nM

Q: What about the IC50 ([1]; screening library sample, likely a mixture of the two stereoisomers, read-out: IC50 of the library compound) of the same molecule?
A: 40 nM

Q: And the “freezing, short-term contextual fear memory” value ([2]; 1 h after training)?
A: No differences were observed

Q: What about the “freezing, long-term contextual fear memory” value ([2]; 24 h after training, 0.25 mg/kg ip for 4 days, p<0.05) of the same molecule?
A: increased freezing

Q: And the “freezing to tone (CS), short-term memory” value ([3]; 3 h)?
A: no difference

Q: What about the “freezing to tone (CS), long-term memory” value ([3]; 24 h, p<0.05) of the same molecule?
A: significant increase

Q: And the “tumor growth / tumor size vs vehicle (in words)” value [4]?
A: significant difference in tumor size; also recorded: significant reduction in the rate of tumor growth

Q: What about the “reduction in tumor size at the endpoint of the study” value ([4]; 26 days of dosing) of the same molecule?
A: 50%

Q: What about the “effect on thapsigargin-induced drop in translation” value [5] of the same molecule?
A: abolished
